# Like-named read-outs stand apart in the source and are kept apart here.
# Assays:
# [1] = test system: M. chelonae 93; assay: MIC, broth microdilution with resazurin (MHB, 3 days); assay type: cell-based; settings: Mycobacteroides chelonae; M. chelonae 93; read-out: MIC
# [2] = test system: equine erythrocytes; assay: Hemolysis assay; settings: up to 128 μg/mL, 10 min, room temperature
# [3] = HepG2 cytotoxicity, 72 h; assay type: cell-based; settings: human, HepG2 cells, HepG2, 72 h, read-out: HepG2 cytotox., IC50
# Description: (§1) ADMET assays were performed through NIAID Preclinical Services and Eurofins. Potential for cytotoxicity was monitored in HepG2 cells after 72 h growth in the presence of test compounds, either prepared as 10-point 3-fold serial dilutions or at a fixed 10 μM concentration. Cell viability was measured using the CellTiter-Glo® Luminescent Cell Viability Assay (Promega) or via fluorescent image analysis. Cytotoxicity was expressed as IC50 or as percent reduction of viable cells relative to a reference compound. Metabolic stability of compounds was evaluated via incubation with human liver microsomes at 37°C and quantitative analysis of parent compound by LC-MS/MS in samples removed at 0, 5, 15, 30, and 45 min (Obach, [1999]). For cytochrome P450 (CYP) inhibition assays, compounds were prepared as a 7-point dilution series and incubated with human liver microsomes in buffer containing 2 mM NADPH and probe substrate. […] Thermodynamic solubility of compounds in aqueous media was determined by incubation in 50 mM potassium phosphate buffer (pH 7.4) for 24 h, followed by HPLC-UV detection of compound in the filtrate (Analiza, Cleveland, OH, United States).
# [4] = 50% complement-inactivated human serum
# [5] = target: T1, CYP2B6 (Homo sapiens, UniProt P20813); assay: CYP inhibition in human liver microsomes; assay type: in vitro ADME
# T1 construct: incubated with human liver microsomes in buffer containing 2 mM NADPH and probe substrate; from tissue; host or cells: human liver microsomes
# T1 sequence (P20813 1-491): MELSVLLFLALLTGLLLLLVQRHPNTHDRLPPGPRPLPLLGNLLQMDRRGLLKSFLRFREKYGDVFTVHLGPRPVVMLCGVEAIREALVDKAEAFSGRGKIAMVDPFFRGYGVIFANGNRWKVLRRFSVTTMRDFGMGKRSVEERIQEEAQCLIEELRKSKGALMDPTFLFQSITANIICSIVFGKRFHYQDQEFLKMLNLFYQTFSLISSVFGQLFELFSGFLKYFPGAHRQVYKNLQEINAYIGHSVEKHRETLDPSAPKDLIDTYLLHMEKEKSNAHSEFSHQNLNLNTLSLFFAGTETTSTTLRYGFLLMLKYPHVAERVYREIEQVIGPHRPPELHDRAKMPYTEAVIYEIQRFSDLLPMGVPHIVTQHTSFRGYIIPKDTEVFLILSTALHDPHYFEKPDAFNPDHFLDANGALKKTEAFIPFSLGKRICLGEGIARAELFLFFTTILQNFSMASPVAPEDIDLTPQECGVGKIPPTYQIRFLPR
# Description: as §1
# [6] = test system: CYP3A; assay: CYP inhibition in human liver microsomes; assay type: in vitro ADME
# Description: as §1
# [7] = test system: S. pneumoniae ATCC 49619; assay: MIC, spectrum of activity; assay type: cell-based; settings: Streptococcus pneumoniae, ATCC49619; S. pneumoniae ATCC 49619; read-out: MIC
# [8] = test system: M. abscessus (n = 20) clinical isolates; assay: MIC against rapid-growing NTM clinical isolates; assay type: cell-based; settings: M. abscessus (n = 20)
# [9] = test system: Anaerobes (n > 20 strains); assay: organism not typed; assay type: cell-based
# [10] = test system: Other NTM (n = 12); assay: MIC against rapid-growing NTM clinical isolates; assay type: cell-based; settings: Other NTM (n = 12)
# [11] = test system: Mtb H37Rv; assay type: cell-based, M. tuberculosis
# [12] = test system: E. coli ATCC 25922 + PMBN (permeabilized); assay: MIC, spectrum of activity; assay type: cell-based; settings: Escherichia coli, ATCC25922
# [13] = test system: P. aeruginosa ATCC 35151; assay: MIC, spectrum of activity; assay type: cell-based; settings: Pseudomonas aeruginosa, ATCC35151; P. aeruginosa ATCC 35151; read-out: MIC
# [14] = test system: M. tuberculosis H37Rv mc^2 6206; assay: microbe, parasite or virus in culture; assay type: cell-based; settings: Mycobacterium tuberculosis, 168 h
# [15] = test system: M. abscessus massiliense 119; assay: MIC, broth microdilution with resazurin (MHB, 3 days); assay type: cell-based; settings: Mycobacteroides abscessus; M. abscessus massiliense 119; read-out: MIC
# [16] = test system: E. faecalis ATCC 29212; assay: MIC, spectrum of activity; assay type: cell-based; settings: Enterococcus faecalis, ATCC29212; E. faecalis ATCC 29212; read-out: MIC
# [17] = test system: Intracellular Mtb; assay: microbe, parasite or virus in culture; assay type: cell-based, M. tuberculosis; settings: Mycobacterium tuberculosis
# [18] = physchem; assay type: physicochemical; settings: pH 7.4, aqueous buffer, thermodynamic from solid
# Description: as §1
# [19] = in vitro; assay type: in vitro ADME; settings: human, microsomes
# Description: as §1
# [20] = test system: Mabs 21
# [21] = test system: M. chelonae (n = 11) clinical isolates; assay: MIC against rapid-growing NTM clinical isolates; assay type: cell-based; settings: M. chelonae (n = 11)
# [22] = test system: E. coli tolC CGSC 5633 (efflux mutant strain); assay: microbe, parasite or virus in culture; assay type: cell-based; settings: Escherichia coli
# [23] = test system: S. pyogenes ATCC 19615; assay: MIC, spectrum of activity; assay type: cell-based; settings: Streptococcus pyogenes, ATCC19615; S. pyogenes ATCC 19615; read-out: MIC
# [24] = test system: M. abscessus 79; assay: MIC in MHB versus 7H9+OADC; assay type: cell-based
# [25] = test system: M. avium 101; assay: MIC, Middlebrook medium (7H9 + OADC, 7 days); assay type: cell-based; settings: Mycobacterium avium, 168 h; M. avium 101; read-out: MIC
# [26] = test system: Mtb; assay: microbe, parasite or virus in culture; assay type: cell-based, M. tuberculosis; settings: Mycobacterium tuberculosis
smiles,measurement,setting,value
CC12CC3CC(C)(C1)CC(C(=O)Nc1nc4ccc(OC(F)(F)F)cc4s1)(C3)C2 [CRS400226],MIC,[1],0.5 µg/mL
same,Hemolysis,[2],128 µg/mL
same,IC50 at 72 h,[3],69 µM
same,IC50 at 72 h,[3]; value in brackets,29 µg/mL
same,Protein (serum) binding,[4],>95%
same,inhibition at 10 µM,[5],< 50%
same,inhibition at 10 µM,[6],< 50%
same,MIC,[7],64 µg/mL
same,MIC range,[8],0.25 to 2 µg/mL
same,MIC90,"[8]; Mycobacteroides abscessus, read-out: MIC90",0.5 µg/mL
same,MIC,[9],> 16 µg/mL
same,MIC range,[10],0.12 to 1 µg/mL
same,MIC90,[10]; read-out: MIC90,0.5 µg/mL
same,reduction in Mtb in time-kill assay,[11],3 Log10 CFU
same,"time-kill kinetics, result in words",[11],bactericidal activity
same,MIC,[12],> 64 µg/mL
same,MIC,[13],> 64 µg/mL
same,MIC,[14],0.5 µg/mL
same,MIC,[15],0.25 µg/mL
same,MIC,[16],> 64 µg/mL
same,IC90,[17],0.8 µg/mL
same,solubility at 24 h,[18],< 3 µM
same,microsomal CLint,[19],124 µL/min/mg
same,lung histology,[20]; after 4 weeks of treatment,only very mild areas of airway-centric inflammation
same,reduction of lung CFU compared to the vehicle control,"[20]; intratracheal 25 mg/kg once daily, 5 days per week, 4 weeks, 5% corn oil/saline emulsion",0.64 Log10 CFU
same,tolerability,"[20]; up to 4 weeks of treatment, intratracheal 25 mg/kg",well tolerated
same,MIC range,[21],0.5–0.5 μg/mL
same,MIC90,"[21]; Mycobacteroides chelonae, read-out: MIC90",0.5 µg/mL
same,MIC,[22],> 64 µg/mL
same,MIC,[23],> 64 µg/mL
same,MIC,"[24]; M. abscessus 79, 7H9 + OADC (5 mg/mL albumin)",2 µg/mL
same,MIC,"[24]; M. abscessus 79, MHB",0.25 µg/mL
same,MIC,[25],2 µg/mL
same,MBC,[26],10.6 µg/mL
